ChEMBL document CHEMBL3272190, “(2-exo-3-endo)-2-Aryltropane-3-carboxylic esters, a new class of narcotic antagonists” (J Med Chem, 1978)
Active and inactive are the calls of the source. The calls are words filed in the database; no cut-off is given here.

What was measured:
Rattus norvegicus [1] = assay: Narcotic analgesic activity in sc dosed rat assessed as inhibition of phenazocine-induced effect by D'Amour-Smith tail flick test; format: functional
Mus musculus [2] = assay: Antiwrithing activity in sc dosed mouse assessed as prevention of acetylcholine-induced abdominal constriction response; format: functional; settings: Abdomen
Rattus norvegicus [3] = assay: Narcotic analgesic activity in po dosed rat assessed as inhibition of phenazocine-induced effect by D'Amour-Smith tail flick test; format: functional
Mus musculus [4] = assay: Antiwrithing activity in mouse assessed as prevention of acetylcholine-induced abdominal constriction response at 100 mg/kg, sc; format: functional, Abdomen; settings: route subcutaneous
Mus musculus [5] = assay: Induction of depression in mouse at 75 mg/kg, sc; format: organism-based; parameters: dose 75 mg/kg, route subcutaneous; settings: in vivo
Mus musculus [6] = assay: Antiwrithing activity in mouse assessed as prevention of acetylcholine-induced abdominal constriction response at 25 mg/kg, sc; format: functional, Abdomen; settings: route subcutaneous
Mus musculus [7] = assay: Induction of sedation in mouse at 40 mg/kg, sc; format: organism-based; parameters: dose 40 mg/kg, route subcutaneous; settings: in vivo
Mus musculus [8] = assay: Antiwrithing activity in sc dosed mouse assessed as prevention of phenyl-p-benzoquinone-induced abdominal constriction response; format: functional; settings: Abdomen
Rattus norvegicus [9] = assay: Induction of tremors in rat at 120 mg/kg, sc; format: organism-based; parameters: dose 120 mg/kg, route subcutaneous; settings: in vivo
Mus musculus [10] = assay: Antiwrithing activity in po dosed mouse assessed as prevention of phenyl-p-benzoquinone-induced abdominal constriction response; format: functional; settings: Abdomen
Rattus norvegicus [11] = assay: Narcotic analgesic activity in po dosed rat assessed as inhibition of meperidine-induced effect by D'Amour-Smith tail flick test; format: functional, organism-based
Rattus norvegicus [12] = assay: Induction of convulsion in rat at 120 mg/kg, sc; format: organism-based; parameters: dose 120 mg/kg, route subcutaneous; settings: in vivo
Rattus norvegicus [13] = assay: Analgesic activity in rat assessed as inhibition of intraarterial bradykinin-induced effect up to 100 mg/kg, sc; format: functional
Mus musculus [14] = assay: Induction of hyperexcitable in mouse at 100 mg/kg, sc; format: organism-based; parameters: dose 100 mg/kg, route subcutaneous; settings: in vivo
Rattus norvegicus [15] = assay: Narcotic analgesic activity in sc dosed rat assessed as inhibition of meperidine-induced effect by D'Amour-Smith tail flick test; format: functional, organism-based
Rattus norvegicus [16] = assay: Narcotic analgesic activity in sc dosed rat assessed as inhibition of morphine-induced effect by D'Amour-Smith tail flick test; format: functional, organism-based
Rattus norvegicus [17] = assay: Narcotic analgesic activity in po dosed rat assessed as inhibition of morphine-induced effect by D'Amour-Smith tail flick test; format: functional, organism-based
Mus musculus [18] = assay: Antiwrithing activity in po dosed mouse assessed as prevention of acetylcholine-induced abdominal constriction response; format: functional; settings: Abdomen
Rattus norvegicus [19] = assay: Induction of hyperactiveness in rat at 200 mg/kg, po; format: organism-based; parameters: dose 200 mg/kg, route oral; settings: in vivo
Rattus norvegicus [20] = assay: Induction of depression in rat at 75 mg/kg, sc; format: organism-based; parameters: dose 75 mg/kg, route subcutaneous; settings: in vivo
Mus musculus [21] = assay: Analgesic activity in mouse assessed as inhibition of intraarterial bradykinin-induced effect at 50 mg/kg, sc; format: functional, organism-based; parameters: dose 50 mg/kg
Mus musculus [22] = assay: Induction of convulsion in mouse at 75 mg/kg, sc; format: organism-based; parameters: dose 75 mg/kg, route subcutaneous; settings: in vivo
Mus musculus [23] = assay: Toxicity in mouse assessed as mortality at >15 mg/kg, sc; format: organism-based; settings: in vivo
Mus musculus [24] = assay: Antiwrithing activity in mouse assessed as prevention of acetylcholine-induced abdominal constriction response at 15 mg/kg, sc; format: functional, Abdomen; settings: route subcutaneous
Mus musculus [25] = assay: Induction of hyperactiveness in mouse at 30 mg/kg, sc; format: organism-based; parameters: dose 30 mg/kg, route subcutaneous; settings: in vivo

## COC(=O)[C@H]1C[C@H]2CC[C@H]([C@H]1c1ccccc1)N2C
Rattus norvegicus [1]
  AD50: >80 mg/kg

## COC(=O)[C@H]1C[C@H]2CC[C@@H]([C@H]1c1ccccc1)N2C
Rattus norvegicus [1]
  AD50: 3.3 mg/kg

## COC(=O)[C@H]1C[C@H]2CC[C@@H](N2)[C@H]1c1cccc(O)c1
Rattus norvegicus [1]
  AD50: >80 mg/kg
Mus musculus [2]
  ED50: 60 mg/kg

## COC(=O)[C@H]1C[C@H]2CC[C@H](N2)[C@H]1c1cccc(O)c1
Rattus norvegicus [1]
  AD50: 0.3 mg/kg
Mus musculus [2]
  ED50: 60 mg/kg
Rattus norvegicus [3]
  AD50: 14 mg/kg

## COC(=O)[C@H]1C[C@H]2CC[C@@H]3[C@H]1c1cc(O)ccc1CN23
Mus musculus [4]
  Activity: 100%
Mus musculus [5]
  Activity: Toxic
Rattus norvegicus [1]
  AD50: 1.45 mg/kg
Mus musculus [6]
  Activity: 0%

## COC(=O)[C@H]1C[C@H]2CC[C@@H]3[C@H]1c1cccc(O)c1CN23
Rattus norvegicus [1]
  AD50: 2 mg/kg

## COC(=O)[C@@H]1C[C@H]2CCC([C@H]1c1ccccc1)N2C (mixture of isomers)
Mus musculus [7]
  Activity: Toxic
Rattus norvegicus [1]
  AD50: >80 mg/kg
Mus musculus [8]
  ED50: 17 mg/kg
Mus musculus [2]
  ED50: 12 mg/kg
Rattus norvegicus [9]
  Activity: Toxic

## COC(=O)[C@H]1C[C@H]2CCC([C@H]1c1ccccc1)N2C (mixture of isomers)
Mus musculus [10]
  ED50: > 200 mg/kg
Rattus norvegicus [11]
  Activity: inactive
Mus musculus [7]
  Activity: Toxic
Rattus norvegicus [12]
  Activity: Toxic
Rattus norvegicus [13]
  Activity: inactive
Rattus norvegicus [1]
  AD50: 5.5 mg/kg
Mus musculus [14]
  Activity: Toxic
Mus musculus [8]
  ED50: 43 mg/kg
Rattus norvegicus [15]
  Activity: inactive
Rattus norvegicus [16]
  Activity: inactive
Mus musculus [2]
  ED50: 12 mg/kg
Rattus norvegicus [17]
  Activity: inactive
Mus musculus [18]
  ED50: 16 mg/kg
Rattus norvegicus [3]
  AD50: 1.1 mg/kg

## COC(=O)[C@H]1C[C@H]2CCC(N2)[C@H]1c1cccc(O)c1 (mixture of isomers)
Rattus norvegicus [1]
  AD50: 2 mg/kg

## COC(=O)C1C[C@H]2CC[C@H]([C@H]1c1cccs1)N2C (mixture of isomers)
Mus musculus [5]
  Activity: Toxic
Rattus norvegicus [1]
  AD50: 4.9 mg/kg
Mus musculus [8]
  ED50: 60 mg/kg
Mus musculus [2]
  ED50: 13 mg/kg

## COC(=O)[C@H]1C[C@H]2CC[C@H]([C@H]1c1ccc[nH]1)N2C (racemic)
Rattus norvegicus [19]
  Activity: Toxic
Rattus norvegicus [1]
  AD50: >80 mg/kg
Mus musculus [18]
  ED50: 34 mg/kg

## COC(=O)[C@@H]1C[C@H]2CC[C@H]([C@H]1c1ccccc1)N2Cc1ccccc1 (racemic)
Rattus norvegicus [1]
  AD50: >80 mg/kg
Mus musculus [2]
  ED50: > 75 mg/kg
Mus musculus [18]
  ED50: 21 mg/kg

## COC(=O)[C@H]1C[C@H]2CC[C@@H](N2)[C@H]1c1ccccc1 (racemic)
Mus musculus [10]
  ED50: 100 mg/kg
Rattus norvegicus [20]
  Activity: Toxic
Mus musculus [21]
  Activity: Active
Rattus norvegicus [1]
  AD50: 2.1 mg/kg
Mus musculus [8]
  ED50: 22 mg/kg
Mus musculus [2]
  ED50: 3.4 mg/kg
Rattus norvegicus [9]
  Activity: Toxic
Mus musculus [18]
  ED50: 8.4 mg/kg
Rattus norvegicus [3]
  AD50: 4.1 mg/kg

## COC(=O)[C@H]1C[C@H]2CC[C@H]([C@H]1c1ccccc1)N2CC1CC1 (racemic)
Mus musculus [22]
  Activity: Toxic
Mus musculus [23]
  Activity: Toxic
Mus musculus [24]
  Activity: 67%
Rattus norvegicus [1]
  AD50: 10 mg/kg
Mus musculus [2]
  ED50: 10 mg/kg
Mus musculus [25]
  Activity: Toxic

## CN1[C@@H]2CC[C@@H]1[C@@H](c1ccccc1)[C@@H](C(=O)O)C2 (racemic)
Rattus norvegicus [1]
  AD50: >80 mg/kg

## CC(C)OC(=O)[C@H]1C[C@H]2CC[C@H]([C@H]1c1ccccc1)N2C (racemic)
Rattus norvegicus [12]
  Activity: Toxic
Rattus norvegicus [1]
  AD50: >80 mg/kg
Mus musculus [2]
  ED50: 16 mg/kg
Mus musculus [25]
  Activity: Toxic
